Reference: patent publication US20060173009A1, “Agent inducing increase in bone mass” (priority 2003, published 2006)

Key:
[1] = system: osteoporosis model (rat OVX); assay: Osteoporosis model (rat OVX), Test 1: 12 weeks administration, compound A and incadronate; assay type: in vivo; conditions: for femoral bone strength (three-point bending test) / femoral cortical bone mineral density (pQCT) / femoral cortical bone thickness (pQCT): OVX rats, compound A 30 mg/kg twice a day oral, incadronate 1 mg/kg once a day oral; for femoral bone strength (three-point bending test): in comparison with Control Group 1 (FIG. 1); for femoral cortical bone mineral density (pQCT): in comparison with Control Group 1 (FIG. 2); for femoral cortical bone thickness (pQCT): in comparison with Control Group 1 (FIG. 3)
Procedure: (§1) Female SD rats of 16 weeks of age (Charles River Japan) were used in the test. Under anesthesia, both sides of ovaries were exposed, and ovaries of all groups excluding the sham operation group were ligated and extracted. In the sham operation group, only an operation of exposing ovaries to the outside of abdomen was carried out.
(§2) Preparation of the aforementioned model was carried out by referring to the method of Kalu et al., (Bone Miner., vol. 15, p. 175 (1991)) and the method of Frost et al., (Bone Miner., vol. 18, p. 227 (1992)).
Before carrying out the ovariectomy (OVX), bone mineral density at 5 mm from the tibial proximal end was measured by pQCT. By leaving for 8 weeks after the OVX, significant reduction of the bone mineral density was confirmed. […] The bone density was measured every 4 weeks after the administration, and urine samples were collected during 24 hours from the previous day of the completion of observation period. After completion of the urine collection, they were sacrificed by exsanguinations under ether anesthesia, and samples were collected.
Bone strength of the femoral diaphysis was measured by three-point bending test (TK-252c, mfd. by Muromachi Kikai). A femur was gently put on a supporting table of 20 mm in distance between supporting points, a bending load was applied on the midpoint of femur at a rate of 10 mm/min, and a load-deformation curve was recorded until its breakage. Maximum value of the load-deformation curve was used as the ultimate force, and the slope of the linear portion of the load-defomation curve was used as the stiffness.
Using a peripheral quantitative computed tomography (PQCT, XCT960A, mfd. by Norland-Stratec), cross-section of the bone was scaned, and bone mineral density and the like various parameters were calculated by analyzing the image.
As a bone metabolism marker, measurement of lysylpyridinoline (deoxypyridinoline hereinafter) value was carried out by SRL MediSearch using an HPLC method (Uebelhart, D et al., Bone Miner., vol. 8, p. 87 (1990)). In order to exclude influence of urine volume, the thus obtained deoxypyridinoline value was corrected by dividing the value by urine creatinine concentration or multiplying the 24 hour urine volume.
The compound of Production Example 93 (6-(4-fluoropiperidin-1-yl)-3-(6-methoxypyridin-2-yl)-1,2,4-triazolo[4,3-b]pyridazine: to be referred to as compound A hereinafter) which is a typical compound of the compound (I) was used as the non-living body-derived non-peptide osteoblast differentiation promoting compound of the invention, and incadronate (Bisphonal (registered trademark)) as the bisphosphonate, respectively. Groups in which the compound A or incadronate alone and a parathyroid hormone hPTH(1-34) are to be administered were used as comparative groups. In addition, the drug-non-administered OVX group and the sham operation group were used as control groups. The compound A was orally administered twice a day as a 0.5% methyl cellulose suspension of 30 mg/5 ml/kg, and incadronate was orally administered once a day as an aqueous solution of 1 mg/2.5 ml/kg. The hPTH(1-34) was subcutaneously administered once a day as a physiological saline solution of 3 μg/1 ml/kg. To the control groups was orally administered 0.5% methyl cellulose twice a day.

[2] = system: osteoporosis model (rat OVX); assay: Osteoporosis model (rat OVX), Test 2: 4 weeks administration, compound A and alendronate; assay type: in vivo; conditions: Test 2, OVX rats, 24 hour urine 5 weeks after the administration, EIA method (FIG. 7)
Procedure: as §1, §2
Before carrying out the ovariectomy (OVX), bone mineral density of tibial metaphysis at 5 mm from the tibial proximal end was measured by pQCT. By leaving for 8 weeks after the OVX, significant reduction of the bone mineral density of tibial metaphysis was confirmed by re-measurement. […] After 4 weeks of the administration, the cortical bone thickness and bone mineral density of the tibial diaphysis were measured in the same manner as described in the above. In addition, urine samples were collected during 24 hours 5 weeks after the administration, and the urinary deoxypyridinoline was measured by an EIA method (Osteolinks “DPD”, mfd. by Sumitomo Pharmaceutical Biomedical). […]

Compound	femoral bone strength (three-point bending test) [1]	femoral cortical bone mineral density (pQCT) [1]	femoral cortical bone thickness (pQCT) [1]	urinary deoxypyridinoline value (urine volume correction), bone resorption index ([1]; Test 1, OVX rats, 24 hour urine, HPLC method (FIG. 4))	urinary deoxypyridinoline value (urine volume correction), bone resorption index [2]
COc1cccc(-c2nnc3ccc(N4CCC(F)CC4)nn23)n1 [compound A, 6-(4-fluoropiperidin-1-yl)-3-(6-methoxypyridin-2-yl)-1,2,4-triazolo[4,3-b]pyridazine]	increasing tendency	increasing tendency	increasing tendency	increased	increased
O=P(O)(O)C(NC1CCCCCC1)P(=O)(O)O [incadronate, reference compound]	increasing tendency	increasing tendency	increasing tendency		
